Assay results published in patent US4572907A, “High caloric product for I.V. administration” (Abbott Laboratories, priority 1984, dated 1986).

How the values were obtained:
[1] = Toxicity (LD50) when tested in mice; conditions: mouse, in vivo
Source text: Another advantage of the compounds of this invention are their low toxicity.

[2] = Stability of the compound, solid or in water (NMR and TLC analysis); assay type: physicochemical

| Compound | LD50 [1] | degradation at 0° after one month ([2]; 0°, one month, NMR and TLC analysis) | stability at 0° ([2]; 0°, substantially long periods of time) | hydrolysis in water after one month ([2]; 15 mg/mL in water, room temperature, one month) | stability in water ([2]; 15 mg/mL in water, room temperature, one week, TLC analysis) | acyl-migration products ([2]; aqueous solution, 60°) | relative hydrolysis of β- and α-anomers ([2]; aqueous solution, 60°) | α-anomers remaining after 36 hours ([2]; aqueous solution, 60°, 36 hours, α-anomers) | β-anomers remaining after 36 hours ([2]; aqueous solution, 60°, 36 hours, β-anomers) | hydrolysis of aqueous solution at 60° ([2]; aqueous solution, 60°, formation of D-glucose, NMR and TLC analysis) | time after which slow degradation of the solid was noted ([2]; solid compound, 60°, D-glucose and unidentified decomposition products (TLC)) |
| --- | --- | --- | --- | --- | --- | --- | --- | --- | --- | --- | --- |
| CCC(C(=O)OC1O[C@H](CO)[C@@H](O)[C@H](O)[C@H]1O)C(=O)OC1O[C@H](CO)[C@@H](O)[C@H](O)[C@H]1O (stereo partly drawn) [Example 4, Di-(1,1'-D-glucopyranosyl)ethylmalonates] | 9700 mg/kg |  |  |  |  |  |  |  |  |  |  |
| CCCCC(C(=O)OC1O[C@H](CO)[C@@H](O)[C@H](O)[C@H]1O)C(=O)OC1O[C@H](CO)[C@@H](O)[C@H](O)[C@H]1O (stereo partly drawn) [Example 2, Di-(1,1'-D-glucopyranosyl)n-butylmalonates] |  | no noticeable degradation | stable at 0° for substantially long periods of time | Partial hydrolysis into D-glucose | stable in water | No acyl-migration products were detected | hydrolysis of the β-anomers appeared faster than that of the α-anomers | some α-anomers were still present | completely disappeared | some hydrolysis after about two hours | 3 h |
